Where two headings read alike, the source gives them in different places.
Legend:
[1] = cited from earlier work
[2] = Inhouse trials: Arsenic Trioxide in glycerin with sodium hydroxide; format: physicochemical; conditions: dissolved first in sodium hydroxide solution, then added to Glycerin

With Arsenic Trioxide as the substance, how does the “solubility of Arsenic Trioxide in 100 g of water” value (“solubility of Arsenic Trioxide” below) ([1]; 0° C.) read?
The value was 1.2 g.

And the “solubility of Arsenic Trioxide” value ([1]; 25° C.)?
Its value is 2.1 g.

What about the “solubility of Arsenic Trioxide” value ([1]; 75° C.) of the same substance?
The value was 5.6 g.

What about the “solubility in alcohol, chloroform, and ether” value [1] of the same substance?
The value was “insoluble”.

And the “concentrated solution of Arsenic Trioxide formed in presence of Glycerin” value [2]?
Its value is 157400 µg/mL.

— patent publication US11583552B2, “Pharmaceutical formulation of arsenic trioxide” (priority 2021, dated 2023)
